Source: patent US5034392A, “4-(3-(4-oxothiazolidinyl)butynylamines” (Hoechst-Roussel Pharmaceuticals Incorporated, priority 1990, dated 1991)
Counter-ions that a name gives are not always drawn.

Assays:
[1] = phenyl-para-quinone writhing assay in mice (analgesia); format: in vivo
From the text: The compounds of the present invention are useful as analgesic agents due to their ability to alleviate pain in mammals. […] Exptl. Biol. Med., 95, 729 (1957)]. The analgesic activity of some of the compounds of the invention expressed in terms of percent inhibition of writhing is given in Table 1.

[2] = antihypertensive activity in the spontaneous hypertensive rat by the indirect tail cuff method; format: in vivo; details: at 50 mg/kg p.o, treated orally for three days, drop measured on the third day
Procedure: Antihypertensive activity is measured in the spontaneous hypertensive rat by the indirect tail cuff method. […] In this procedure a group of five animals is treated orally for three days with the test compound in relation to a control group of the same number. The drop in blood pressure is measured on the third day following administration.

SMILES	% Inhibition of Writhing ([1]; at 20 mg/kg s.c.) [%]	mm Hg decrease (decrease in mean arterial blood pressure) [2] [mm Hg]	also measured
O=C1CSC2(CCCC2)N1CC#CCN1CCN(C(c2ccccc2)c2ccc(Cl)cc2)CC1 (stereo not shown) [4-(4-(1-(4-Chlorobenzhydryl)piperazino)-2-butynyl)-1-thia-4-azaspiro[4.4]nonane-3-one trisoxalate]	30	–	–
O=C1CSCN1CC#CCN1CCN(c2ccncc2)CC1 [3-(4-(4-Pyridyl)piperazino)-2-butynyl)-4-oxothiazolidine sesquioxalate]	–	30	–
O=C1CSCN1CC#CCN1CCC(c2noc3cc(Cl)ccc23)CC1 [3-(4-[3-(4-piperidyl)-6-chloro-benzisoxazole]-2-butynyl)-4-oxothiazolidine oxalate]	39	–	–
O=C(O)/C=C\C(=O)O.O=C(O)/C=C\C(=O)O.O=C1CSCN1CC#CCN1CCN(C(c2ccccc2)c2ccc(Cl)cc2)CC1 (stereo not shown) [3-(4-(1-(4-Chlorobenzhydryl)piperazino)-2-butynyl)-4-oxothiazolidine bis maleate]	–	28	–
CC1SCC(=O)N1CC#CCN1CCC(O)(c2ccccc2)CC1.O=C(O)C(=O)O (stereo not shown) [2-Methyl-3-(4-(4-hydroxy-4-phenylpiperidino)-2-butynyl)-4-oxothiazolidine oxalate]	51	–	–
CC(C)=CCN1CCC2(C)c3cc(O)ccc3CC1C2C (stereo not shown) [pentazocine, reference compound]	–	–	% Inhibition of Writhing ([1]; standard, at 1.3 mg/kg s.c.): 50%
O=C1CSCN1CC#CCN1CCN(c2ccc(F)cc2)CC1 [3-(4-(1-(4-Fluorophenyl)piperazino)-2-butynyl-4-oxothiazolidine oxalate]	–	71	–
COc1ccccc1N1CCN(CC#CCN2CSCC2=O)CC1 [3-[4-(1-(2-Methoxyphenyl)piperazino)-2-butynyl]-4-oxothiazolidine sesquioxalate]	–	51	–
N=C(N)NCCN1CCCCCCC1 [guanethidine, reference compound]	–	20	–
CC(C)Cc1ccc(C(C)C(=O)O)cc1 (stereo not shown) [ibuprofen, reference compound]	–	–	% Inhibition of Writhing ([1]; standard, at 10.4 mg/kg s.c.): 50%
